Laboratory results reported in article PMC9415638, “Discovery of novel thiazolyl-pyrazolines as dual EGFR and VEGFR-2 inhibitors endowed with in vitro antitumor activity towards non-small lung cancer” (Journal of Enzyme Inhibition and Medicinal Chemistry, 2022).

Experiments:
[1] = molecular target: T1, recombinant human VEGFR-2/KDR (Homo sapiens, UniProt P35968); test: VEGFR-2 kinase assay (VEGFR-2/KDR ELISA kit); assay type: biochemical; details: read-out: IC50 (nM) ± SEM VEGFR-2
T1 construct: purchased
Protocol: The EGFR kinase assay was carried out in 96-well plates coated with PGT (poly l-glutamic acid l-tyrosine, 4:1, Sigma Aldrich, St. Louis, MO) as previously described. IC50 values were calculated using GraphPad Prism 5. Each experiment was carried out at least three times. The VEGFR-2 kinase assay was carried out in 96-well streptavidin coated plate using recombinant human VEGFR-2/KDR ELISA kit according to manufacturer’s instructions.

[2] = system: WI-38 human lung fibroblast cells; test: MTT cytotoxicity assay on normal cells; assay type: cell-based; details: for IC50: Homo sapiens, WI-38, normal lung fibroblasts, MTT, 24 h, n = 3, read-out: IC50 (µM) ± SEM WI-38; for Mean tumour selectivity: S. I. (WI-38/A549 and H441)
Protocol: (§1) All chemicals used in this study were analytical or cell-culture grade.
(§2) Cytotoxicity was measured using the MTT assay. […] The medium was aspirated and 150 μL DMSO was added to solubilise MTT formazan crystals. The plates were then shaken, and the optical density was determined at 570 nm using an ELISA plate reader (Model 550, Bio-Rad, Hercules, CA). At least three independent experiments were performed.

[3] = system: NCI-H1650 cells (EGFR exon19 deletion delE746-A750); test: MTT assay on EGFR-mutated NSCLC cells; assay type: cell-based; details: Homo sapiens
Protocol: as §1, §2

[4] = system: NCI-H1975 cells (EGFR L858R/T790M); test: MTT assay on EGFR-mutated NSCLC cells; assay type: cell-based; details: Homo sapiens, EGFR L858R/T790M double mutation
Protocol: as §1, §2

p-EGFR = test: Western blotting in A549 cells; assay type: cell-based, human; details: Western blot, vs untreated control
Source text: (§3) Figure 3. […] (B) The relative protein expression level of p-EGFR normalised with total EGFR was quantified by the Image J software (C) The relative protein expression level of p-VEGFR-2 normalised with total VEGFR-2. The values are expressed as the mean ± SEM based on three different experiments. ***p < 0.001 indicate a significant difference compared with control.
(§4) The protein extraction and quantification were done as previously described.

p-VEGFR-2 = test: Western blotting in A549 cells; assay type: cell-based, human; details: Western blot, vs untreated control
Source text: as §3, §4

A549 cells migration = test: Scratch wound healing assay; assay type: cell-based, human; details: 36 h, vs control
Protocol: Figure 5. Effect of compounds 10b and 10d on A549 cells migration. […] Representative images of scratched areas in confluent A549 cell layers.
A549 cells were seeded and incubated in 6-well cell culture plates till reaching confluence. Then, the confluent monolayers were scratched to form a “wound” using a sterile needle. The cells were treated with either vehicle as a control, 10b or 10d for 36 h. The images were recorded at 0 and 36 h to monitor the migration of cells into the wounded area using a light photomicroscope.

A549 cells [5] = test: Cell cycle analysis by flow cytometry (7AAD); assay type: cell-based, human; details: A549, 24 h; untreated controls 6.06% and 5.93%
Protocol: Figure 6. […] (A) Representative cell cycle distribution data are shown by flow cytometric analysis upon incubation with 0 (control), 2.5 or 5 μM of 10b or 10d or with 0 (control), 5 or 20 μM of gefitinib for 24 h. (B) Quantification of cell cycle distribution upon 24 h incubation with 10b or 10d.
(§5) DNA content was measured using 7-aminoactinmycin D (7AAD) (Biotium, Inc., Hayward, CA) staining and is commonly used for cell cycle phase analysis as previously described. Apoptosis was evaluated using the annexin V/propidium iodide (PI) staining kit (BioLegend, San Diego, CA) according to the manufacturer’s instructions and as previously described.

A549 cells [6] = test: Annexin V-FITC/PI apoptosis assay; assay type: cell-based, human; details: A549, 5 μM, 24 h; control 5.4% (10b), […] (10d)
Protocol: Figure 7. Apoptotic effect of compounds 10b and 10d on A549 cells. (A) Representative cytograms of apoptotic A549 cells stimulated with 0 (control), 2.5 or 5 μM 10b or 10d, for 24 h. The lower-right (annexin V + PI- cells) and the upper-right (annexin V + PI + cells) quadrants show early and late apoptotic cells, and the lower-left (annexin V-PI- cells) and the upper-left ([…]) quadrants represent viable and necrotic cells, respectively. (B) Quantification of annexin V-positive apoptotic cells upon stimulation with 10b or 10d. The values are the means ± SEM of three different experiments. *p < 0.05 and *p < 0.01 indicate significant differences compared with control.
as §5

H441 lung cancer cells = test: Anti-proliferative MTT assay; details: Homo sapiens, NCI-H441, 24 h; for inhibition at 10 µM: read-out: % Growth inhibition ± SEM H441; for IC50: read-out: IC50 (µM) ± SEM H441, MTT, 24 h, n = 3
Protocol: The compounds were added at a single concentration (10 µM) and the cultures were incubated for 24 h, then the per cent growth inhibition (%GI) was calculated.

TEK = TEK (Homo sapiens, UniProt Q02763); test: Kinase selectivity profiling, Z'-LYTE FRET
SYK = SYK (Homo sapiens, UniProt P43405); test: Kinase selectivity profiling, Z'-LYTE FRET
EPHB2 = EPHB2 (Homo sapiens, UniProt P29323); test: Kinase selectivity profiling, Z'-LYTE FRET
ABL1 = ABL1 (Homo sapiens, UniProt P00519); test: Kinase selectivity profiling, Z'-LYTE FRET
CLK1 = CLK1 (Homo sapiens, UniProt P49759); test: Kinase selectivity profiling, Z'-LYTE FRET
ROCK1 = ROCK1 (Homo sapiens, UniProt Q13464); test: Kinase selectivity profiling, Z'-LYTE FRET
PKC = test: Kinase selectivity profiling, Z'-LYTE FRET; details: read-out: IC50 (nM) PKC
AKT1 = AKT1 (Homo sapiens, UniProt P31749); test: Kinase selectivity profiling, Z'-LYTE FRET
CDK1 = CDK1 (Homo sapiens, UniProt P06493); test: Kinase selectivity profiling, Z'-LYTE FRET
CDK5 = CDK5 (Homo sapiens, UniProt Q00535); test: Kinase selectivity profiling, Z'-LYTE FRET
Sequence of CDK5 (Q00535 whole entry): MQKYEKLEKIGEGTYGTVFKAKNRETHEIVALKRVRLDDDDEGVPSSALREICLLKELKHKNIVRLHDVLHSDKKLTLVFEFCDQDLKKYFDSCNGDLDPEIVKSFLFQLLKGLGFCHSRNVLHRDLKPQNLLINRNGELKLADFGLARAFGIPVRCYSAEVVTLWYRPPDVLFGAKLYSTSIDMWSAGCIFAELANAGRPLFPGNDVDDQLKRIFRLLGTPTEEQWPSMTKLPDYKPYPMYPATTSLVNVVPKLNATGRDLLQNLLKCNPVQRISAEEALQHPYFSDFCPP
Sequence of CDK5 (Q15078 whole entry partner): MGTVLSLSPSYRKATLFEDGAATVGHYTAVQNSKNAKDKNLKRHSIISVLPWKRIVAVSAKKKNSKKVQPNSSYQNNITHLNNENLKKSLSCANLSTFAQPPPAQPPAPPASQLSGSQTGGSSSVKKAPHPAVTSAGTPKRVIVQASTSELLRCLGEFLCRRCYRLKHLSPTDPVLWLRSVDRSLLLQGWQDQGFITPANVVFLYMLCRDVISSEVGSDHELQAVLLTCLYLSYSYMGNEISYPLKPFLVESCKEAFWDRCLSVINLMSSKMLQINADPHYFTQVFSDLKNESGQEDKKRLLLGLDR

Sequence of ABL1 (P00519 whole entry): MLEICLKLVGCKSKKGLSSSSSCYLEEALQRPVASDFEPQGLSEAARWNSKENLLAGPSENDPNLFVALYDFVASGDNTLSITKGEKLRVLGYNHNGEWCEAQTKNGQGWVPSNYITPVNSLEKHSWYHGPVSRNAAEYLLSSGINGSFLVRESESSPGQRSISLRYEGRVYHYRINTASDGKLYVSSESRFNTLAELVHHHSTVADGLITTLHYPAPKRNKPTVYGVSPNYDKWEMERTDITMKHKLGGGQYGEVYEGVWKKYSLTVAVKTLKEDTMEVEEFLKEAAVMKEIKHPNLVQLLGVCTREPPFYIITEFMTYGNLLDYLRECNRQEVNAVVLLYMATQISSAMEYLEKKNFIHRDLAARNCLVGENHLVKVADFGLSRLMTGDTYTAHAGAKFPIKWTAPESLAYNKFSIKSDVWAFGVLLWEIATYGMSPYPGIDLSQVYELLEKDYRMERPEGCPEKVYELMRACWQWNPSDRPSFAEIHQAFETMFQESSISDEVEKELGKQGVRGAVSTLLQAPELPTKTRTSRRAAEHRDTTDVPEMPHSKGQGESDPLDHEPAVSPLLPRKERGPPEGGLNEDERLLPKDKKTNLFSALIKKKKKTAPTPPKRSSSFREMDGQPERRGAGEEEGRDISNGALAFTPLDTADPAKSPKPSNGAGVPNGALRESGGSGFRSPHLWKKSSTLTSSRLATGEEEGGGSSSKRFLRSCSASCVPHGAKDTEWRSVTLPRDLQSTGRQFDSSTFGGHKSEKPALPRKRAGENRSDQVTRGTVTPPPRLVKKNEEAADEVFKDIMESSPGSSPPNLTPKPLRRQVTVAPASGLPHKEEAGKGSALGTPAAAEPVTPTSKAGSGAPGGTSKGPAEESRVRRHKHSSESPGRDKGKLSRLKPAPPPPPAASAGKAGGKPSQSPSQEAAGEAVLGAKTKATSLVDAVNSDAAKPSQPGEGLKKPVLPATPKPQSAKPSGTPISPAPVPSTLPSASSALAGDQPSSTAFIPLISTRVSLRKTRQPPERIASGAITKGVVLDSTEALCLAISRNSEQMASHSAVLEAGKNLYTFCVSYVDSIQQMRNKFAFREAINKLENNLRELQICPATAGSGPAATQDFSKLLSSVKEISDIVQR
Sequence of CLK1 (P49759 whole entry): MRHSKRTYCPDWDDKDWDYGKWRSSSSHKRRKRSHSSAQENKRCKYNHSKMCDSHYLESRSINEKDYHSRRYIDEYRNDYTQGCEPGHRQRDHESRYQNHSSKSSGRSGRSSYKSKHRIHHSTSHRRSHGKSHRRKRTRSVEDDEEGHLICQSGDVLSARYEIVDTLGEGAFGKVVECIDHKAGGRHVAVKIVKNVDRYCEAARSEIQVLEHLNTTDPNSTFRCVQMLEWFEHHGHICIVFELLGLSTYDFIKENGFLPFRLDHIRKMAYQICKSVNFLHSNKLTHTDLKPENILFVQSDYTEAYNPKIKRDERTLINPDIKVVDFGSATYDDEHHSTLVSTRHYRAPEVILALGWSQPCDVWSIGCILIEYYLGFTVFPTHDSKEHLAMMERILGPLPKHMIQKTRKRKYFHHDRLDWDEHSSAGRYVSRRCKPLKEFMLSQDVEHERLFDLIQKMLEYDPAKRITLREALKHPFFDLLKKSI
Sequence of AKT1 (P31749 whole entry): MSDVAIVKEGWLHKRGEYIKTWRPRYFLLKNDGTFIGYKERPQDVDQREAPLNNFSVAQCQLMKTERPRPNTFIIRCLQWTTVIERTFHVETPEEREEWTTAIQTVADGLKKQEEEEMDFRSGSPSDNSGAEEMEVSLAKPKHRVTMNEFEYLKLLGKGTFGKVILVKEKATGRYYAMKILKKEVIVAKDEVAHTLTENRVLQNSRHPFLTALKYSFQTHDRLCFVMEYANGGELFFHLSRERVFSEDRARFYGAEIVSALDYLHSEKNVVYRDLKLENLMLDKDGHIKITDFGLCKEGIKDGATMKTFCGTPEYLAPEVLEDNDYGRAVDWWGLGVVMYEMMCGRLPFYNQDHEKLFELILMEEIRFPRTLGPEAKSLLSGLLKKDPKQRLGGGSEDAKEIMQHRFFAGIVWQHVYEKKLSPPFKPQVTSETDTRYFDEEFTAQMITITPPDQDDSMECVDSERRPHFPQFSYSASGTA
Sequence of CDK1 (P06493 whole entry): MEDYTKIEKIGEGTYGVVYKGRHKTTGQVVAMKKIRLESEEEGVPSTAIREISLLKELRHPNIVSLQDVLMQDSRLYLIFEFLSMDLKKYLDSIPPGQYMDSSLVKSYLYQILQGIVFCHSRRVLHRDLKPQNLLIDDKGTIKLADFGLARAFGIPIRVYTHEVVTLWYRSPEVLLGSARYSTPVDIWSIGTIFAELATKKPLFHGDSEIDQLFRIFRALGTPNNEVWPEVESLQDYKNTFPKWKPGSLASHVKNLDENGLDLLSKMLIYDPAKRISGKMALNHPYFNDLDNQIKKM
Sequence of CDK1 (P14635 whole entry partner): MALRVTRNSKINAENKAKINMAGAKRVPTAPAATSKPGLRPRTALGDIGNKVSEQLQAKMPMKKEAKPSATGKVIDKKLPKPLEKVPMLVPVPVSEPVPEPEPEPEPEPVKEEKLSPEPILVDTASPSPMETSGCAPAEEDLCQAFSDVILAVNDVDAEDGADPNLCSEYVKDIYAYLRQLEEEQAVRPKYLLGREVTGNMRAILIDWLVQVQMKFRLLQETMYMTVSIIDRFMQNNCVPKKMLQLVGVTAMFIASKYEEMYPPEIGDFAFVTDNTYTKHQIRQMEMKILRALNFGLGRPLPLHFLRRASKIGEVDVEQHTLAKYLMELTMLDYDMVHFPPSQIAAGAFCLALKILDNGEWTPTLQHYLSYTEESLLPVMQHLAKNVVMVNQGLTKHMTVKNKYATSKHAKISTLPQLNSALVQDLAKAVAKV
Sequence of EPHB2 (P29323 19-1055): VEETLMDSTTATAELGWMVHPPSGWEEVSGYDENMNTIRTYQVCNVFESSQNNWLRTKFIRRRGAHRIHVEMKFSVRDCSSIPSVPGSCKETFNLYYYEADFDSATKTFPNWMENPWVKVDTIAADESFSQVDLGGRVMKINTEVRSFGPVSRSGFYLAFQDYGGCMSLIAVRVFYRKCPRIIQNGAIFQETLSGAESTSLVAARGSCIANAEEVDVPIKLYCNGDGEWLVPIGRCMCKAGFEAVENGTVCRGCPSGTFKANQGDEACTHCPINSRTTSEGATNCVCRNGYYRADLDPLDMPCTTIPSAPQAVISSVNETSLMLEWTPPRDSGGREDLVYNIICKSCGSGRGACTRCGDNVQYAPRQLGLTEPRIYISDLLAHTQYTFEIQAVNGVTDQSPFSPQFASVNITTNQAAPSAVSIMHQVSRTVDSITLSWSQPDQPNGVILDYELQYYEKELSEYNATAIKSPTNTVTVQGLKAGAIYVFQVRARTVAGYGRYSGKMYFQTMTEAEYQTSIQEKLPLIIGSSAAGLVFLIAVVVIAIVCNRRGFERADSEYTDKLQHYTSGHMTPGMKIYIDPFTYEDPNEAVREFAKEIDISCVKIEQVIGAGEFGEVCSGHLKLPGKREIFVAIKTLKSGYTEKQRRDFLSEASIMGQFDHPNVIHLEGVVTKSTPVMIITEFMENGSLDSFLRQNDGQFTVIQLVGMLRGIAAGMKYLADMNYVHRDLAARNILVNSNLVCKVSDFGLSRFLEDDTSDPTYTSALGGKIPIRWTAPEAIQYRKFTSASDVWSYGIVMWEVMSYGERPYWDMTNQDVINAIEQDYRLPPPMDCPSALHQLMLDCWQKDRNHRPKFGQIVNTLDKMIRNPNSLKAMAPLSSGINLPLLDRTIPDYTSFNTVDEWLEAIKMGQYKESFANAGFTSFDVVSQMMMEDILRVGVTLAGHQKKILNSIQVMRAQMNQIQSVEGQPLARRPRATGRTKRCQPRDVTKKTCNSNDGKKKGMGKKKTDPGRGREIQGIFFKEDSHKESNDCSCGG

Compound | IC50 [1] | IC50 [2] | Mean tumour selectivity [2] | IC50 [3] | IC50 [4] | protein expression level of p-EGFR (p-EGFR) | protein expression level of p-VEGFR-2 (p-VEGFR-2) | A549 cancer cell migration (A549 cells migration) | cells at G2/M phase (A549 cells [5]) | annexin V-positive apoptotic cells (A549 cells [6]) | inhibition at 10 µM (H441 lung cancer cells) | IC50 (H441 lung cancer cells) | IC50 (TEK) | IC50 (SYK) | IC50 (EPHB2) | IC50 (ABL1) | IC50 (CLK1) | IC50 (ROCK1) | IC50 (PKC) | IC50 (AKT1) | further results
CCOC(=O)c1sc(N2N=C(c3ccc(Cl)cc3Cl)CC2c2ccc(OC)cc2)nc1C (centres unmarked) [Compound 10b, Ethyl-2-(3-(2,4-dichlorophenyl)-5-(4-methoxyphenyl)-4,5-dihydro-1H-pyrazol-1-yl)-4-methylthiazole-5-carboxylate] | 78.4 ± 1.5 nM | 72.4 ± 7.2 µM | 16.1 | 5.7 ± 0.5 µM | 6.2 ± 0.9 µM | significantly downregulated | significantly downregulated | effective in reducing the cancer cell migration | 29.2% | 16.5% | 79.1 ± 2.6% | 4.8 ± 0.1 µM | > 2 µM | 1.12 ± 0.022 µM | > 2 µM | > 2 µM | 1.07 ± 0.054 µM | > 2 µM | > 2000 nM | 0.816 ± 0.038 µM | IC50 (CDK1): 0.31 ± 0.012 µM; IC50 (CDK5): 1.14 ± 0.02 µM
COc1ccc(C2CC(c3ccc(Cl)cc3Cl)=NN2c2nc(C)c(C(=O)Nc3ccccc3)s2)cc1OC (centres unmarked) [Compound 10d, 2-(3-(2,4-Dichlorophenyl)-5-(3,4-dimethoxyphenyl)-4,5-dihydro-1H-pyrazol-1-yl)-4-methyl-N-phenylthiazole-5-carboxamide] | 43 ± 2.4 nM | 51.4 ± 3.5 µM | 15.3 | 3.5 ± 0.2 µM | 4.4 ± 0.6 µM | significantly downregulated | significantly downregulated | effective in reducing the cancer cell migration | 33.92% | 28.5% | 89.2 ± 3.9% | 3.8 ± 0.5 µM | > 2 µM | 0.87 ± 0.031 µM | > 2 µM | > 2 µM | 0.798 ± 0.019 µM | > 2 µM | > 2000 nM | 0.702 ± 0.024 µM | IC50 (CDK1): 0.245 ± 0.007 µM; IC50 (CDK5): 0.993 ± 0.015 µM
